Results on 4 molecules are retold here after ChEMBL document CHEMBL1201862, “PubChem BioAssay data set” (2004).

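These data come from cells grown in 96-well plates and exposed to compound for 48 hours at five concentrations. At the GI50, growth is halved.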 Active and inactive are the calls of the source. Cut-off read from the data, not from the text of the source: active = GI50 up to about 1.1 µM and inactive = higher.

Some test systems named below: NCI-H460; RXF 393; HCT-116; SK-MEL-28; OVCAR-8; HOP-62; NCI-H23; SF-268; NCI-H226; OVCAR-5; SK-MEL-5; CCRF-CEM; MOLT-4; COLO 205; UACC-257; SF-539; MDA-N; SN12C; OVCAR-3.
Holding throughout (experiment): NCI-60 cell line screen, 48 h

`COc1ccccc1NC(=O)/C(Cc1nc2ccc([N+](=O)[O-])cc2nc1O)=N\NC(=O)C[N+](C)(C)C`: the GI50 in the experiment with NCI-H460 was 38.1 µM (inactive); in the experiment with RXF 393, > 100 µM (inactive); in the experiment with HCT-116, 46.8 µM (inactive); in the experiment with SK-MEL-28 it was > 100 µM (inactive); in the experiment on OVCAR-8, > 100 µM (inactive); in the experiment on HOP-62, > 100 µM (inactive). In addition, the GI50 in the experiment on NCI-H23 is > 100 µM (inactive); in the experiment with SF-268 it was > 100 µM (inactive); in the experiment on NCI-H226 it was > 100 µM (inactive); with OVCAR-5, > 100 µM (inactive); in the experiment on SK-MEL-5, 26.4 µM (inactive); in the experiment on CCRF-CEM it was 13.3 µM (inactive). Also, the GI50 is 16.1 µM (inactive) in the experiment on MOLT-4; 37.2 µM (inactive) in the experiment on COLO 205; > 100 µM (inactive) in the experiment on UACC-257; 49.5 µM (inactive) in the experiment with SF-539; 14.9 µM (inactive) in the experiment on MDA-N; > 100 µM (inactive) in the experiment on SN12C. Besides, the GI50 with OVCAR-3 was 41.7 µM (inactive).

With `O=C1/C(=C\c2ccc(Cl)cc2Cl)Sc2scc(-c3ccc(O)c(O)c3)[n+]21`, the GI50 with NCI-H460 was 16 µM (inactive); with RXF 393, 12.4 µM (inactive); in the experiment on HCT-116, 14.5 µM (inactive); in the experiment with SK-MEL-28 it was 15.9 µM (inactive); in the experiment on OVCAR-8, 17.2 µM (inactive); in the experiment with HOP-62, 15.6 µM (inactive). Besides, the GI50 with NCI-H23 was 11.6 µM (inactive); in the experiment on SF-268, 30.3 µM (inactive); in the experiment on NCI-H226, 15.5 µM (inactive); with OVCAR-5 it was 16.4 µM (inactive); in the experiment on SK-MEL-5 it was 7.98 µM (inactive); in the experiment with CCRF-CEM it was 17.7 µM (inactive). In addition, the GI50 in the experiment on MOLT-4 is 9.64 µM (inactive); in the experiment on COLO 205, 19 µM (inactive); with UACC-257, 18.8 µM (inactive); in the experiment on SF-539 it was 17.1 µM (inactive); in the experiment on MDA-N, 17.5 µM (inactive); in the experiment with SN12C, 15.9 µM (inactive). Further, in the experiment on OVCAR-3, the GI50 is 6.47 µM (inactive).

As for `O=C1C/C(=C\c2ccccc2)C(=O)c2ccccc2N1`, the GI50 was 29.3 µM (inactive) in the experiment on NCI-H460; 19.6 µM (inactive) in the experiment with RXF 393; 14.7 µM (inactive) in the experiment with HCT-116; 29.5 µM (inactive) with SK-MEL-28; 18.8 µM (inactive) with OVCAR-8; 27.5 µM (inactive) in the experiment with HOP-62. Besides, the GI50 in the experiment on NCI-H23 is 24.7 µM (inactive); in the experiment with SF-268 it was 38.2 µM (inactive); in the experiment with NCI-H226, 24.3 µM (inactive); in the experiment on OVCAR-5, 20 µM (inactive); with SK-MEL-5, 20.3 µM (inactive); in the experiment on CCRF-CEM it was 16.7 µM (inactive). Further, the GI50 in the experiment on MOLT-4 was 45.5 µM (inactive); in the experiment with COLO 205, 20 µM (inactive); in the experiment with UACC-257, 26.9 µM (inactive); with SF-539 it was 20.2 µM (inactive); in the experiment with MDA-N, 22.9 µM (inactive); in the experiment on SN12C, 18.5 µM (inactive). In addition, in the experiment on OVCAR-3, the GI50 is 25 µM (inactive).

Turning to `CCN(CC)C(=S)N/N=C/c1cc([N+](=O)[O-])ccc1O`, the GI50 is 3 µM (inactive) in the experiment with NCI-H460; 6.97 µM (inactive) in the experiment on RXF 393; 2.75 µM (inactive) in the experiment on HCT-116; 5.11 µM (inactive) with SK-MEL-28; 3.56 µM (inactive) with OVCAR-8; 7.4 µM (inactive) in the experiment on HOP-62. The GI50 in the experiment on NCI-H23 is 6.59 µM (inactive); in the experiment on SF-268, 3.66 µM (inactive); in the experiment with NCI-H226 it was 2.31 µM (inactive); in the experiment on OVCAR-5, 24.3 µM (inactive); with SK-MEL-5, 2.02 µM (inactive); with CCRF-CEM, 1.26 µM (inactive). The GI50 was 1.8 µM (inactive) with MOLT-4; 3.4 µM (inactive) in the experiment on COLO 205; 8.53 µM (inactive) in the experiment on UACC-257; 6.15 µM (inactive) in the experiment with SF-539; 5.43 µM (inactive) in the experiment on MDA-N; 4.88 µM (inactive) in the experiment on SN12C. Further, in the experiment with OVCAR-3, the GI50 is 0.0528 µM (active).
